Where a name gives a salt, the structure may show the parent alone.
Molecular target: T1, JAK3: Recombinant human kinase domain (Homo sapiens, UniProt P52333)
T1 construct: JAK3: Recombinant human kinase domain from Millipore (Cat #14-629) or prepared; purchased Millipore 14-629
Assay: Determination of IC50 of Janus Kinase (JAK) inhibition, radioactive end-point 33P-ATP assay, JAK3
Assay type: biochemical
Settings: ATP 1.5 uM, peptide 50 uM, 20 minutes, read-out: JAK3-INHIB-DR/v1~NO ADDITIVE~Enzyme_Conc = 100

T1 sequence (P52333 822-1111 limits assumed): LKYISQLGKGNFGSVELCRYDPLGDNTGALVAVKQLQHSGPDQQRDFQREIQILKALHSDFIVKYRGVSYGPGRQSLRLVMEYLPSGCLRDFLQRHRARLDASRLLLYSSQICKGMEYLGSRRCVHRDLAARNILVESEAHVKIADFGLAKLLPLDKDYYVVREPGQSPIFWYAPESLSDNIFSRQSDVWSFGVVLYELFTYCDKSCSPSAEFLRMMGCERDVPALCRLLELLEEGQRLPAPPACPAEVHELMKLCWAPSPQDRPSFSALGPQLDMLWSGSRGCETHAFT

Compared with `Cn1nc(-c2cnc3[nH]cc(C(=O)N[C@H]4CCC[C@H](C(N)=O)C4)c3n2)c2ccc(Cl)cc21` (relative stereo) [Example I-155, 2-(6-Chloro-1-methyl-1H-indazol-3-yl)-5H-pyrrolo[2,3-b]pyrazine-7-carboxylic acid (trans-3-carbamoyl-cyclohexyl)-amide], `C[C@@H](NC(=O)c1c[nH]c2ncc(-c3nn(C)c4cc(Cl)ccc34)nc12)[C@@H]1C[C@@H]1C#N` (single isomer, unassigned) [Example I-206] is 4.4-fold lower in IC50: 78.3 nM for the first, 17.6 nM for the second. The second is the more potent here.

Compared with `C[C@@H](NC(=O)c1c[nH]c2ncc(-c3nn(C)c4cc(Cl)ccc34)nc12)[C@H]1C[C@H]1C#N` (single isomer, unassigned) [Example I-207], `Cn1nc(-c2cnc3[nH]cc(C(=O)N[C@@H](C(=O)N4CCC(C#N)CC4)C4CC4)c3n2)c2ccccc21` [Example I-1] is 3.2-fold lower in IC50: 5.45 nM for the first, 1.72 nM for the second.

Molecular target: T2, recombinant human SYK360-635 (Homo sapiens, UniProt P43405)
T2 construct: made in house
Assay: Determination of IC50 of Spleen Tyrosine Kinase (SYK) inhibition, 33P ATP filtration assay
Assay type: biochemical
Settings: SYK aa 360-635 0.5 nM; ATP 20 μM, peptide 5 μM, 0.1% BSA; read-out: SYK_ENZYME_FILTRATION/v1, BSA

Compared with `Cn1nc(-c2cnc3[nH]cc(C(=O)NC(C)(C)C)c3n2)c2cc(OCCCC(C)(C)N)ccc21` [Example I-449, 2-(5-(4-Amino-4-methylpentyloxy)-1-methyl-1H-indazol-3-yl)-N-tert-butyl-5H-pyrrolo[3,2-b]pyrazine-7-carboxamide 2,2,2-trifluoroacetate], `CC(C)(N)CCCn1nc(-c2cnc3[nH]cc(C(=O)NC(C)(C)C)c3n2)c2cc(OC(F)F)ccc21` [Example I-454, 2-(1-(4-Amino-4-methylpentyl)-5-(difluoromethoxy)-1H-indazol-3-yl)-N-tert-butyl-5H-pyrrolo[3,2-b]pyrazine-7-carboxamide trifluoroacetate] is 6.2-fold lower in IC50: 46.9 nM for the first, 7.6 nM for the second. The second is the more potent here.

First: CC(C)NC(=O)c1c[nH]c2ncc(-c3nn(CCCN(C)C)c4ccc(OC(F)F)cc34)nc12 [Example I-450]
Second: CCNC(=O)c1c[nH]c2ncc(-c3nn(CCCN(C)C)c4ccc(OC(F)F)cc34)nc12 [Example I-453, 2-(5-(Difluoromethoxy)-1-(3-(dimethylamino)propyl)-1H-indazol-3-yl)-N-ethyl-5H-pyrrolo[3,2-b]pyrazine-7-carboxamide trifluoroacetate]
The IC50 of the first is 6.4-fold lower: 13.3 nM for the first, 85.7 nM for the second. The first is the more potent here.

Compared with `Cn1ncc2c(-c3cnc4[nH]cc(C(=O)NC(C)(C)C)c4n3)cccc21` [Example I-451, N-tert-Butyl-2-(1-methyl-1H-indazol-4-yl)-5H-pyrrolo[3,2-b]pyrazine-7-carboxamide hydrochloride], `CC(C)c1ccc2c(c1)c(-c1cnc3[nH]cc(C(=O)NC(C)(C)C)c3n1)nn2C` [Example I-458, N-tert-Butyl-2-(5-isopropyl-1-methyl-1H-indazol-3-yl)-5H-pyrrolo[2,3-b]pyrazine-7-carboxamide] is 3.1-fold higher in IC50: 4.8 nM for the first, 15.1 nM for the second.

`CN(C)CCCn1nc(-c2cnc3[nH]cc(C(=O)NC4(C)CC4)c3n2)c2cc(OC(F)F)ccc21` [Example I-452, 2-(5-(Difluoromethoxy)-1-(3-(dimethylamino)propyl)-1H-indazol-3-yl)-N-(1-methylcyclopropyl)-5H-pyrrolo[3,2-b]pyrazine-7-carboxamide trifluoroacetate] and `CC(O)CCn1nc(-c2cnc3[nH]cc(C(=O)NC(C)(C)CO)c3n2)c2ccc(F)cc21` (centres unmarked) [Example I-462, 2-(6-Fluoro-1-(3-hydroxybutyl)-1H-indazol-3-yl)-N-(1-hydroxy-2-methylpropan-2-yl)-5H-pyrrolo[3,2-b]pyrazine-7-carboxamide] are within 1.5-fold of each other in IC50: 13.9 nM for the first, 17.6 nM for the second.

First: Cn1nc(-c2cnc3[nH]cc(C(=O)NC(C)(C)C)c3n2)c2cc(S(C)(=O)=O)ccc21 [Example I-461, N-tert-Butyl-2-(1-methyl-5-(methylsulfonyl)-1H-indazol-3-yl)-5H-pyrrolo[3,2-b]pyrazine-7-carboxamide]
Second: Cn1nc(-c2cnc3[nH]cc(C(=O)NCC4(O)CNC4)c3n2)c2ccc(F)cc21 [Example I-463, 2-(6-Fluoro-1-methyl-1H-indazol-3-yl)-N-((3-hydroxyazetidin-3-yl)methyl)-5H-pyrrolo[3,2-b]pyrazine-7-carboxamide trifluoroacetate]
The IC50 of the first is 27-fold higher: 144 nM for the first, 5.42 nM for the second.

From patent publication US8658646B2, “Pyrrolopyrazine kinase inhibitors” (Hoffmann-LaRoche Inc., priority 2011, dated 2014)
